Measurements published in US20160194359A1, “CELL-REACTIVE, LONG-ACTING, OR TARGETED COMPSTATIN ANALOGS AND RELATED COMPOSITIONS AND METHODS” (APELLIS PHARMACEUTICALS, INC., priority 2012, published 2016).
Blank lines part the entries; values can stand above or below the molecule they belong to.

What was measured:
[1] = tested on: complement activation via the classical pathway; experiment: classical complement inhibition assay (C3b deposition ELISA); type: biochemical, Human
Experimental: Inhibitory activity of the synthesized compounds was assessed by measuring the effect of the compounds on complement activation via the classical pathway using a standard complement inhibition assay. The protocol measures C3b deposition in an ELISA format. C3b deposition monitored using this method is generated through complement activated by the classical pathway. Briefly, 96-well plates are coated with BSA. Human plasma, chicken ovalbumin (OVA), polyclonal anti-OVA antibodies and compound being tested (referred to as “drug”) are added and incubated, followed by addition of Anti-human C3 HRP-conjugated antibody. After an additional incubation, substrate is added and signal detected. Details of the protocol are as follows:
Protocol for Classical Complement Inhibition Assay
• Ninety-six well plate (polystyrene plate, Thermo Scientific, 9205) • Chicken OVA (Sigma A5503-5G) • Rabbit anti-chicken OVA (Abcam ab1221) • Blocking buffer (Startingblock buffer, Thermo Scientific 37538) • Veronal Buffer (5× concentration, Lonza 12-624E) • Human plasma (collected with Lepirudin at 50 ug/ml final concentration) • Goat anti-human C3 HRP-conjugated Ab (MP Biomedicals, 55237) • Tween-20 Wash Buffer (0.05% Tween 20-PBS buffer) • TMB (Peroxidase substrate, BD 555214)—1:1 mixture of BD 51-2607KC and 51-2606KC. • 1M H2SO4
• 1. […] Read the plate at 450 nm
Data was analyzed using GraphPad Prism5 software. […]

[2] = tested on: RBCs from a patient with PNH; experiment: modified Ham's test with flow cytometry for CD59 and C3d (Example 18); type: cell-based, human; conditions: for % C′3 (Type I) / % C′3 (Type II) / % C′3 (Type III): cells positive for C3 loading
Experimental: A modified Ham's test was performed to assess the ability of compstatin analogs to protect PNH RBCs from complement-mediated lysis. […] Exposure to heat inactivated human serum was used as a control representing no significant complement-mediated lysis as complement is inactivated by heat. Exposure to acidified human serum and magnesium (Mg^2+) in the absence of complement inhibitors (pane labeled Mg^2+) was used as a control representing maximum lysis.
Following incubation, cells were stained with antibodies to CD59 and C3d. Cd59 level permitted the classification of the PNH RBCs as Type I, Type II, or Type III. Staining for C3d, a product of C3 activation and cleavage was used as a marker of C3 and C3 activation product deposition (loading). Flow cytometric analysis was performed to assess CD59 and C3d on RBC surfaces and to quantify the percentages of Type I, Type II, and Type III cells present in various samples.
Type I cells (shown in orange in FIG. 12) have normal levels of CD59. Type III cells (shown in blue in FIG. 12) have essentially no detectable CD59. […] Type II cells (shown in purple in FIG. 12) have reduced levels of CD59 as compared with normal or Type I cells and have an intermediate sensitivity to complement-mediated lysis. […] Reduction in or absence of lysis may be evidenced by increased levels of C3 or C3 activation products on Type II cells, as is evident by comparing the level of C3d on Type II cells in the no lysis panel with the level of C3d on Type II cells in the max. lysis panel in both FIGS. 12(A) and 12(B). […] A shift in the relative percentages of Type I, II, and III cells from the percentages present in the max. lysis control panels (Mg^2+) towards the percentages present in the no lysis control panels (heat inactivated serum) is indicative of protection against complement-mediated lysis. The column labeled % C′3 in Table 11 refers to the percentage of cells deemed “positive” for presence of C3 and C3 activation products (“C3 loading”).

PNH RBCs = experiment: modified Ham's assay, comparison with Soliris (Example 19); type: cell-based, human; conditions: CA28-2GS-BF at 50 ug/ml
Experimental: Flow cytometry was performed after antibody staining using antibodies against CD59 and C3d. In this figure, quadrant 1 (Q1) and quadrant 3 (Q3) represent Type III cells. Quadrant 2 (Q2) and quadrant 4 (Q4) represent Types I and II cells. Q1 and Q2 represent cells with a significant and abnormally high amount of C3 activation product (e.g., C3d) deposition.

[3] = tested on: complement activation (alternative pathway); conditions: WO2004/026328; cited from earlier work
[4] = biological target: T1, complement component C3 (human) (human, UniProt P01024 23-1663); experiment: cell-based or functional assay
[5] = biological target: T1, complement component C3 (human); experiment: cell-based or functional assay; remark: listed apart in the source
[6] = biological target: T1, complement component C3 (human); experiment: cell-based or functional assay; remark: listed apart in the source

Molecule: CA28-2GS-BF: two CA28-AEEAc-Lys moieties coupled to bifunctional linear 40 kD PEG, NHS-OCO(CH2)3COO-PEG-CO(CH2)3COO-NHS
activity per compstatin analog (peptide) moiety compared with CA28 [1]: less than the activity of an individual CA28 molecule
complement inhibiting activity compared with CA28 on a molar basis [1]: virtually identical
C3 loading on PNH red cells ([2]; at 100 micrograms/ml compound or higher concentrations): virtually no C3 loading
Type III % ([2]; compound at 20 micrograms/ml): 19.19%
% C′3 (Type I) ([2]; compound at 20 micrograms/ml): 2.18%
% C′3 (Type II) ([2]; compound at 20 micrograms/ml): 12.28%
% C′3 (Type III) ([2]; compound at 20 micrograms/ml): 0.99%
% C′3 (Type I) ([2]; compound at 40 micrograms/ml): 2.84%
% C′3 (Type III) ([2]; compound at 40 micrograms/ml): 1.21%
Type III % ([2]; compound at 50 micrograms/ml): 13.87%
% C′3 (Type I) ([2]; compound at 50 micrograms/ml): 2.28%
% C′3 (Type III) ([2]; compound at 50 micrograms/ml): 1.29%
% C′3 (Type I) ([2]; compound at 60 micrograms/ml): 2.05%
% C′3 (Type II) ([2]; compound at 60 micrograms/ml): 13.04%
% C′3 (Type III) ([2]; compound at 60 micrograms/ml): 1.44%
Type II % ([2]; compound at 100 micrograms/ml): 53.93%
% C′3 (Type I) ([2]; compound at 100 micrograms/ml): 0.07%
% C′3 (Type II) ([2]; compound at 100 micrograms/ml): 0.88%
% C′3 (Type III) ([2]; compound at 100 micrograms/ml): 0.11%
Type II % ([2]; compound at 200 micrograms/ml): 51.99%
% C′3 (Type I) ([2]; compound at 200 micrograms/ml): 0.02%
% C′3 (Type II) ([2]; compound at 200 micrograms/ml): 0.26%
% C′3 (Type III) ([2]; compound at 200 micrograms/ml): 0.02%
Type II % ([2]; compound at 500 micrograms/ml): 51.87%
Type III % ([2]; compound at 500 micrograms/ml): 37.87%
% C′3 (Type I) ([2]; compound at 500 micrograms/ml): 0.04%
% C′3 (Type II) ([2]; compound at 500 micrograms/ml): 0.3%
% C′3 (Type III) ([2]; compound at 500 micrograms/ml): 0.05%
Q1 # Events (PNH RBCs; Q1 = Type III cells with abnormally high C3d deposition): 23
Q3 # Events (PNH RBCs; Q3 = Type III cells without significant C3d deposition): 153,187
Q4 # Events (PNH RBCs; Q4 = Types I and II cells without significant C3d deposition): 95,713
deposition of C3d / C3 activation products on PNH RBCs (PNH RBCs; activated complement): essentially no deposition of C3d

Molecule: CC[C@H](C)[C@H](N)C(=O)N[C@H]1CSSC[C@@H](C(=O)N[C@H](C(N)=O)[C@@H](C)O)NC(=O)[C@H](CCCN=C(N)N)NC(=O)[C@H](Cc2cnc[nH]2)NC(=O)[C@H](Cc2cnc[nH]2)NC(=O)CNC(=O)[C@H](Cc2c[nH]c3ccccc23)NC(=O)[C@H](CC(=O)O)NC(=O)[C@H](CCC(N)=O)NC(=O)[C@H](C(C)C)NC(=O)[C@H](C(C)C)NC1=O [Compstatin]
IC50 [3]: 12000 nM

Next, values leading:

IC50 (read off the curve); alternative pathway complement activation (LPS-coated plate, C3b deposition ELISA, human plasma) [B] [4]: ~400 nM
B1: CA28-2TS-BF (bifunctionalized PEG-based compstatin analog, TS type) (peptide)
peptide: ICVWQDWGAHRCTK
modifications: N-terminal acetyl; 1-methyl-tryptophan at position 4; disulfide Cys2-Cys12; AEEAc linker after Thr13; Lys side chain coupled through a carbamate to one end of a bifunctional linear 40 kD PEG (TS type); C-terminal amide

IC50 on a molar basis, classical complement inhibition assay [5]: ~260 nM
IC50, classical complement inhibition assay (C3b deposition ELISA), as a function of CA28 concentration [6]: 1930 nM
B2: (CA28-AEEAc)8-PEG40k (peptide)
peptide: ICVWQDWGAHRCTK
modifications: N-terminal acetyl; 1-methyl-tryptophan at position 4; disulfide Cys2-Cys12; AEEAc linker after Thr13; Lys side chain coupled to one arm of an eight-arm 40 kD PEG (NOF HGEO-400GS); C-terminal amide
